In patent publication US7973061B2, “Anaplastic lymphoma kinase modulators and methods of use” (Exelixis, Inc., priority 2004, dated 2011):

target: T1, ALK (baculovirus expressed human ALK kinase domain F1098-K1410) (Homo sapiens, UniProt Q9UM73); assay: biochemical; settings: 1 μM ATP, 4 μM poly-AEKY, 12 nM ALK, 2 hours at ambient temperature; read-out: ALK IC50
T1 construct: human ALK kinase domain F1098-K1410; made in house
In short: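 Inhibitors were tested at 10 concentrations, and IC50 was derived from a sigmoidal fit (Min, Max, Hill slope). Kinase activity was measured as percent ATP left after a 2 h reaction at room temperature, detected by luciferase-luciferin chemiluminescence. The ATP level was set close to KM for the ALK kinase domain F1098-K1410.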

T1 sequence (Q9UM73 1098-1410): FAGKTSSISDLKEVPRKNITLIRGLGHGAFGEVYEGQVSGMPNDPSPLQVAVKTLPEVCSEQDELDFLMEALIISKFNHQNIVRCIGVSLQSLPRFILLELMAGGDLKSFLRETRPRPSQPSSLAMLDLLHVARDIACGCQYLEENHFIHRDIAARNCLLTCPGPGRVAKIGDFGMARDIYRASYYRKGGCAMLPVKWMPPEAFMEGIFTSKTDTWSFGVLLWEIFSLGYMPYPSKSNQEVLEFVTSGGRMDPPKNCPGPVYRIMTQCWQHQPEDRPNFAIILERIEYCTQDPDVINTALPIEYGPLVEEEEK

| Structure (SMILES) | IC50 [µM] |
| --- | --- |
| COc1ccccc1CNC(=O)c1csc(CNC(=O)Cc2ccc(C(C)C)cc2)n1 [Entry 192, 2-[({[4-(1-methylethyl)phenyl]acetyl}amino)methyl]-N-{[2-(methyloxy)phenyl]methyl}-1,3-thiazole-4-carboxamide] | 0.05 to 0.5 |
| CCCCCCN(C)C(=O)c1csc(CNC(=O)COc2ccc(OC(F)(F)F)cc2)n1 [Entry 193, N-hexyl-N-methyl-2-({[({4-[(trifluoromethyl)oxy]phenyl}oxy)acetyl]amino}methyl)-1,3-thiazole-4-carboxamide] | 0.05 to 0.5 |
| O=C(COc1ccc(OC(F)(F)F)cc1)NCc1nc(C(=O)NCc2ccccc2)cs1 [Entry 194, N-(phenylmethyl)-2-({[({4-[(trifluoromethyl)oxy]phenyl}oxy)acetyl]amino}methyl)-1,3-thiazole-4-carboxamide] | 0.05 to 0.5 |
| CSCCNC(=O)c1csc(CNC(=O)COc2ccc(OC(F)(F)F)cc2)n1 [Entry 195, N-[2-(methylthio)ethyl]-2-({[({4-[(trifluoromethyl)oxy]phenyl}oxy)acetyl]amino}methyl)-1,3-thiazole-4-carboxamide] | 0.05 to 0.5 |
| CC(C)(C)CC(C)(C)NC(=O)c1csc(CNC(=O)COc2ccc(OC(F)(F)F)cc2)n1 [Entry 196, N-(1,1,3,3-tetramethylbutyl)-2-({[({4-[(trifluoromethyl)oxy]phenyl}oxy)acetyl]amino}methyl)-1,3-thiazole-4-carboxamide] | 0.05 to 0.5 |
| CC(C)C(C)NC(=O)c1csc(CNC(=O)COc2ccc(OC(F)(F)F)cc2)n1 (stereo not shown) [Entry 197, N-(1,2-dimethylpropyl)-2-({[({4-[(trifluoromethyl)oxy]phenyl}oxy)acetyl]amino}methyl)-1,3-thiazole-4-carboxamide] | 0.05 to 0.5 |
| COc1ccccc1CNC(=O)c1csc(CNC(=O)c2cccnc2Oc2ccc(Cl)cc2)n1 [Entry 198, 2-[(4-chlorophenyl)oxy]-N-({4-[({[2-(methyloxy)phenyl]methyl}amino)carbonyl]-1,3-thiazol-2-yl}methyl)pyridine-3-carboxamide] | 0.05 to 0.5 |
| O=C(COc1ccc(OC(F)(F)F)cc1)NCc1nc(C(=O)NC2CCCc3ccccc32)cs1 (stereo not shown) [Entry 199, N-(1,2,3,4-tetrahydronaphthalen-1-yl)-2-({[({4-[(trifluoromethyl)oxy]phenyl}oxy)acetyl]amino}methyl)-1,3-thiazole-4-carboxamide] | 0.05 to 0.5 |
| CCCCC(CC)CNC(=O)c1csc(CNC(=O)COc2ccc(OC(F)(F)F)cc2)n1 (stereo not shown) [Entry 200, N-(2-ethylhexyl)-2-({[({4-[(trifluoromethyl)oxy]phenyl}oxy)acetyl]amino}methyl)-1,3-thiazole-4-carboxamide] | 0.05 to 0.5 |
| O=C(COc1ccc(OC(F)(F)F)cc1)NCc1nc(C(=O)NCCc2ccc(F)cc2)co1 [Entry 201, N-[2-(4-fluorophenyl)ethyl]-2-({[({4-[(trifluoromethyl)oxy]phenyl}oxy)acetyl]amino}methyl)-1,3-oxazole-4-carboxamide] | 0.05 to 0.5 |
| CC(C)C[C@@H](NC(=O)c1csc(CNC(=O)COc2ccc(OC(F)(F)F)cc2)n1)C(N)=O [Entry 202, N~2~-{[2-({[({4-[(trifluoromethyl)oxy]phenyl}oxy)acetyl]amino}methyl)-1,3-thiazol-4-yl]carbonyl}-D-leucinamide] | 0.05 to 0.5 |
| COc1ccccc1CNC(=O)c1coc(CNC(=O)COc2ccc(OC(F)(F)F)cc2)n1 [Entry 203, N-{[2-(methyloxy)phenyl]methyl}-2-({[({4-[(trifluoromethyl)oxy]phenyl}oxy)acetyl]amino}methyl)-1,3-oxazole-4-carboxamide] | 0.05 to 0.5 |

The remaining lines, values ahead:

| IC50 [µM] | Structure (SMILES) |
| --- | --- |
| 0.05 to 0.5 | CC(NC(=O)c1csc(CNC(=O)COc2ccc(OC(F)(F)F)cc2)n1)c1ccc(Br)cc1 (stereo not shown) [Entry 204, N-[1-(4-bromophenyl)ethyl]-2-({[({4-[(trifluoromethyl)oxy]phenyl}oxy)acetyl]amino}methyl)-1,3-thiazole-4-carboxamide] |
| 0.05 to 0.5 | O=C(COc1ccc(OC(F)(F)F)cc1)NCc1nc(C(=O)NCCN2CCOCC2)cs1 [Entry 205, N-(2-morpholin-4-ylethyl)-2-({[({4-[(trifluoromethyl)oxy]phenyl}oxy)acetyl]amino}methyl)-1,3-thiazole-4-carboxamide] |
| 0.05 to 0.5 | O=C(COc1ccc(OC(F)(F)F)cc1)NCc1nc(C(=O)NCc2ccc(F)cc2)cs1 [Entry 206, N-[(4-fluorophenyl)methyl]-2-({[({4-[(trifluoromethyl)oxy]phenyl}oxy)acetyl]amino}methyl)-1,3-thiazole-4-carboxamide] |
| 0.05 to 0.5 | COc1cc(CCNC(=O)c2coc(CNC(=O)COc3ccc(OC(F)(F)F)cc3)n2)cc(OC)c1 [Entry 207, N-{2-[3,5-bis(methyloxy)phenyl]ethyl}-2-({[({4-[(trifluoromethyl)oxy]phenyl}oxy)acetyl]amino}methyl)-1,3-oxazole-4-carboxamide] |
| 0.05 to 0.5 | O=C(C/C=C/c1ccccc1)NCc1nc(C(=O)NCCc2cccc(Cl)c2)cs1 [Entry 208, N-[2-(3-chlorophenyl)ethyl]-2-({[(3E)-4-phenylbut-3-enoyl]amino}methyl)-1,3-thiazole-4-carboxamide] |
| 0.05 to 0.5 | O=C(COc1ccc(OC(F)(F)F)cc1)NCc1nc(C(=O)NC2CCCCC2)cs1 [Entry 209, N-cyclohexyl-2-({[({4-[(trifluoromethyl)oxy]phenyl}oxy)acetyl]amino}methyl)-1,3-thiazole-4-carboxamide] |
| 0.05 to 0.5 | CCC(C)CNC(=O)c1csc(CNC(=O)COc2ccc(OC(F)(F)F)cc2)n1 (stereo not shown) [Entry 210, N-(2-methylbutyl)-2-({[({4-[(trifluoromethyl)oxy]phenyl}oxy)acetyl]amino}methyl)-1,3-thiazole-4-carboxamide] |
| 0.05 to 0.5 | Cc1ccc(CCNC(=O)c2coc(CNC(=O)COc3ccc(OC(F)(F)F)cc3)n2)cc1C [Entry 211, N-[2-(3,4-dimethylphenyl)ethyl]-2-({[({4-[(trifluoromethyl)oxy]phenyl}oxy)acetyl]amino}methyl)-1,3-oxazole-4-carboxamide] |
| 0.05 to 0.5 | CC(C)CCCC(C)NC(=O)c1csc(CNC(=O)COc2ccc(OC(F)(F)F)cc2)n1 (stereo not shown) [Entry 212, N-(1,5-dimethylhexyl)-2-({[({4-[(trifluoromethyl)oxy]phenyl}oxy)acetyl]amino}methyl)-1,3-thiazole-4-carboxamide] |
| 0.05 to 0.5 | O=C(COc1ccc(OC(F)(F)F)cc1)NCc1nc(C(=O)NCCc2ccccc2Oc2ccccc2)cs1 [Entry 213, N-{2-[2-(phenyloxy)phenyl]ethyl}-2-({[({4-[(trifluoromethyl)oxy]phenyl}oxy)acetyl]amino}methyl)-1,3-thiazole-4-carboxamide] |
| 0.05 to 0.5 | CCCCOc1ccc(NC(=O)NCc2nc(C(=O)NCc3ccccc3OC)cs2)cc1 [Entry 214, 2-{[({[4-(butyloxy)phenyl]amino}carbonyl)amino]methyl}-N-{[2-(methyloxy)phenyl]methyl}-1,3-thiazole-4-carboxamide] |
| 0.05 to 0.5 | O=C(COc1ccc(Cl)cc1)NCc1nc(C(=O)NCCc2ccccc2F)cs1 [Entry 215, 2-[({[(4-chlorophenyl)oxy]acetyl}amino)methyl]-N-[2-(2-fluorophenyl)ethyl]-1,3-thiazole-4-carboxamide] |
| 0.05 to 0.5 | O=C(COc1ccc(OC(F)(F)F)cc1)NCc1nc(C(=O)NCC2CC2)cs1 [Entry 216, N-(cyclopropylmethyl)-2-({[({4-[(trifluoromethyl)oxy]phenyl}oxy)acetyl]amino}methyl)-1,3-thiazole-4-carboxamide] |
